Read-outs that look alike come from different tables or passages of the source.
Biological target: T1, CAS3 (Sordaria macrospora, UniProt F7VU04)
T1 construct: gene SMAC_03179
Assay: stopped-flow CO2 hydrase assay
Assay type: biochemical

[1] = read-out: CAS3 ^c, CO2 1.7-17 mM, pH 8.3, 10-20 mM TRIS, 10 mM NaClO4, 20 °C, 15 min preincubation, sodium salt
[2] = read-out: CAS3 ^c, CO2 1.7-17 mM, pH 8.3, 10-20 mM TRIS, 10 mM NaClO4, 20 °C, 15 min preincubation

T1 sequence (F7VU04 1-174 limits assumed): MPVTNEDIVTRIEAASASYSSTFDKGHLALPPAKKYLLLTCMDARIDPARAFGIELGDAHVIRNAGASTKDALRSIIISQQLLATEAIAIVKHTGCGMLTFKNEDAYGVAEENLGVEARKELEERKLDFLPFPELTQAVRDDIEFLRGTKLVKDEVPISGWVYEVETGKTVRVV

SMILES | Ki [1] | Ki (read-out: CAS3 ^c) | other results
OB(O)c1ccccc1 [Ph-B(OH)2] | – | – | Ki [2]: 0.097 mM
[N-]=[N+]=[N-] [N3^-] | – | 7.2 mM | –
N#CS [SCN^-] | 7.3 mM | – | –
O=NO [NO2^-] | 8.3 mM | – | –
N#C[SeH] [SeCN^-] | – | 7.1 mM | –
O=[Se](=O)(O)O [SeO4^2-] | – | 3.4 mM | –
O=[Te](=O)(O)O [TeO4^2-] | – | 8.1 mM | –
NS(N)(=O)=O [H2NSO2NH2] | – | – | Ki [2]: 0.094 mM
O=C(O)O [CO3^2-] | – | – | Ki (read-out: CAS2 ^b, CO2 1.7-17 mM, pH 8.3, 10-20 mM TRIS, 10 mM NaClO4, 20 °C, 15 min preincubation, sodium salt): 8 mM
S [HS^-] | – | 8.3 mM | –
N#CO [CNO^-] | – | 3.2 mM | –

Now from value to molecule, other results behind:

Ki [1] | SMILES | Ki (read-out: CAS3 ^c) | other results
3.4 mM | O=C(O)O [HCO3^-] | – | –
0.095 mM | NS(=O)(=O)O [H2NSO3H] | – | –
0.89 mM | CCN(CC)C(=S)S [Et2NCS2^-] | – | –
8.5 mM | O=[N+]([O-])O [NO3^-] | – | –
8.6 mM | S=C(S)S [CS3^2-] | – | –
